Experiments:
Settings in all cases: 72 h
[1] = test system: LAMA-84
Method in brief: (§1)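 For the IC50, dose–response curves were fitted with a log-logistic model. The data came from fifteen myeloid leukaemia cell lines grown in RPMI 1640 at densities in the linear growth range and incubated in 384-well plates for 72 h at 37 °C under 5% CO2. Doses were five tenfold steps from 1 to 10,000 nM in duplicate, and luminescent ATP viability was normalised to vehicle and to a positive control at 10 µM before four-parameter fitting.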

[2] = test system: HL-60
Method in brief: as §1

[3] = test system: KCL-22
Method in brief: as §1

[4] = test system: BV-173
Method in brief: as §1

[5] = test system: MOLM-13
Method in brief: as §1

[6] = test system: HEL
Method in brief: as §1

[7] = test system: THP-1
Method in brief: as §1

[8] = test system: SHI-1
Method in brief: as §1

[9] = test system: ML-2
Method in brief: as §1

[10] = test system: KG-1
Method in brief: as §1

[11] = test system: myeloid leukemia patient primary cells Pat.1; assay: cell viability (% survival relative to DMSO control); higher = less cytotoxic
Method in brief: (§2)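 Thawed, Ficoll-purified mononuclear cells from AML or CML patients in RPMI 1640 with 10% FBS were seeded at 10,000 cells/well on 384-well plates pre-printed with 70 compounds at five tenfold concentrations, 1–10,000 nM, in duplicate, for 72 h. Viability was read by CellTiter-Glo and normalised to DMSO and 10 μM proteasome-inhibitor wells. Where given, area under the curve came from four-parameter log-logistic fits (drc, PharmacoGx R packages).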

[12] = test system: myeloid leukemia patient primary cells Pat.8; assay: as above
Method in brief: as §2

[13] = test system: myeloid leukemia patient primary cells Pat.5; assay: as above
Method in brief: as §2

[14] = test system: myeloid leukemia patient primary cells Pat.6; assay: as above
Method in brief: as §2

[15] = test system: myeloid leukemia patient primary cells Pat.14; assay: as above
Method in brief: as §2

[16] = test system: myeloid leukemia patient primary cells Pat.7; assay: as above
Method in brief: as §2

[17] = test system: myeloid leukemia patient primary cells Pat.13; assay: as above
Method in brief: as §2

[18] = test system: myeloid leukemia patient primary cells Pat.2; assay: as above
Method in brief: as §2

[19] = test system: myeloid leukemia patient primary cells Pat.3; assay: as above
Method in brief: as §2

[20] = test system: myeloid leukemia patient primary cells Pat.10; assay: as above
Method in brief: as §2

[21] = test system: myeloid leukemia patient primary cells Pat.12; assay: as above
Method in brief: as §2

[22] = test system: myeloid leukemia patient primary cells Pat.4; assay: as above
Method in brief: as §2

[23] = test system: myeloid leukemia patient primary cells Pat.9; assay: as above
Method in brief: as §2

[24] = test system: myeloid leukemia patient primary cells Pat.11; assay: as above
Method in brief: as §2

[25] = test system: myeloid leukemia patient primary cells Pat.15; assay: as above
Method in brief: as §2

[26] = test system: HL-60; assay: area under dose-response curve (viability, 1 nM-10 uM) (fraction (0-1)); higher = more sensitive
Method in brief: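 A rescreen of the full library used HL-60 cells in RPMI 1640 with 10% FBS on 384-well plates, run in duplicate at five tenfold concentrations (1–10,000 nM). Each screen included DMSO or 100 nM of one of three metabolic inhibitors and ran 72 h at 37 °C, 5% CO2. CellTiter-Glo viability was scaled between DMSO and 10 μM proteasome-inhibitor wells. Any area under the curve comes from four-parameter log-logistic fits with drc and PharmacoGx.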

COC(=O)[C@]12CCC(C)(C)C[C@H]1[C@H]1C(=O)C=C3[C@@]4(C)C=C(C#N)C(=O)C(C)(C)[C@@H]4CC[C@@]3(C)[C@]1(C)CC2 [Bardoxolone methyl]
Settings | IC50 (cell viability)
[1] | > 10 µM
[2] | > 10 µM
[3] | 1140 nM
[4] | 1220 nM
[5] | > 10 µM
[6] | 2240 nM
[7] | 7.05 µM
[8] | > 10 µM
[9] | 1640 nM
[10] | 1090 nM

Settings | area under dose-response curve, co-treatment: AZD3965 100 nM | area under dose-response curve, co-treatment: DMSO vehicle | area under dose-response curve, co-treatment: GSK2194069 100 nM | area under dose-response curve, co-treatment: pictilisib 100 nM | cell viability, 1 nM [%] | cell viability, 10 nM [%] | cell viability, 100 nM [%] | cell viability, 1000 nM [%] | cell viability, 10000 nM [%]
[11] | – | – | – | – | 85.8 | 68.1 | 61.9 | 61.3 | 2.44
[12] | – | – | – | – | 67.7 | 97.5 | 78.5 | 9.52 | 61.5
[13] | – | – | – | – | 65.9 | 47.9 | 5.56 | 6.86 | 7.88
[14] | – | – | – | – | 99.8 | 81.4 | 75 | 17.6 | 72.1
[15] | – | – | – | – | 73.4 | 72.5 | 47 | 2.03 | 25.8
[16] | – | – | – | – | 97.6 | 67.2 | 2.85 | < 0 | < 0
[17] | – | – | – | – | 86.5 | 80.8 | 57.3 | 4.17 | 31.2
[18] | – | – | – | – | > 100 | 93.5 | 78.5 | 34.7 | 77.6
[19] | – | – | – | – | 83.7 | 74.8 | 10.9 | 0.308 | < 0
[20] | – | – | – | – | 82.4 | 56 | 11.8 | 2.87 | 91.9
[21] | – | – | – | – | 97.3 | 92.7 | 77.3 | 95.8 | 52.6
[22] | – | – | – | – | 84.5 | 96.4 | 33.3 | 70 | 1.48
[23] | – | – | – | – | 65.1 | 25.4 | 0.492 | 0.773 | 3.59
[24] | – | – | – | – | > 100 | 91.2 | 87.7 | > 100 | 7.29
[25] | – | – | – | – | 95.2 | 79.4 | 21.8 | 69 | 0.4
[26] | 0.0976 | < 0.0301 | 0.0723 | 0.144 | – | – | – | – | –

CCC(=O)N1CCN(c2ccc(-n3c(=O)ccc4cnc5ccc(-c6cnc7ccccc7c6)cc5c43)cc2C(F)(F)F)CC1 [Torin1]
Settings | IC50 (cell viability)
[1] | 0.222 µM
[2] | 1.75 µM
[3] | 251 nM
[4] | 377 nM
[5] | 0.208 µM
[6] | 594 nM
[7] | 1.11 µM
[8] | > 10 µM
[9] | 616 nM
[10] | 295 nM

Settings | area under dose-response curve, co-treatment: AZD3965 100 nM | area under dose-response curve, co-treatment: DMSO vehicle | area under dose-response curve, co-treatment: GSK2194069 100 nM | cell viability, 1 nM [%] | cell viability, 10 nM [%] | cell viability, 100 nM [%] | cell viability, 1000 nM [%] | cell viability, 10000 nM [%]
[11] | – | – | – | 85.1 | 60.4 | 44.2 | 30.2 | 21.5
[12] | – | – | – | 91.1 | 66.9 | 73.1 | 61.7 | 53.7
[13] | – | – | – | 54.5 | 13.5 | 53.9 | 1.18 | 0.265
[14] | – | – | – | 97.8 | 89.3 | 94.1 | 62.6 | 62.9
[15] | – | – | – | 77.2 | 82.1 | 74.3 | 38.1 | 54.1
[16] | – | – | – | 75.7 | 74.2 | 88.2 | 44.8 | 37.6
[17] | – | – | – | 91.5 | 77.7 | 75.2 | 43 | 51
[18] | – | – | – | 92.5 | 94.3 | 74.2 | 62.8 | 64.2
[19] | – | – | – | 96.1 | > 100 | 93.2 | 66.8 | 62.1
[20] | – | – | – | 63.9 | 96.5 | 30 | 18.6 | 9.9
[21] | – | – | – | 90.6 | 91.5 | 92.3 | 91.5 | 89.5
[22] | – | – | – | 91.6 | 76 | 59.8 | 40.2 | 12.8
[23] | – | – | – | 80.9 | 57.7 | 62 | 27 | 12.3
[24] | – | – | – | 92.9 | 90.9 | 85.8 | 56.7 | 39.4
[25] | – | – | – | 80.6 | 55.9 | 20.2 | 14.2 | 12.1
[26] | 0.0362 | < 0.0301 | < 0.0301 | – | – | – | – | –

O=C1O/C(=C/Br)CCC1c1cccc2ccccc12 (stereo unspecified) [Bromoenol Lactone]
Settings | IC50 (cell viability)
[1] | > 10 µM
[2] | > 10 µM
[3] | 7070 nM
[4] | 4150 nM
[5] | 5.36 µM
[6] | 8390 nM
[7] | 4.53 µM
[8] | > 10 µM
[9] | > 10000 nM
[10] | 8590 nM

Settings | area under dose-response curve, co-treatment: AZD3965 100 nM | area under dose-response curve, co-treatment: DMSO vehicle | area under dose-response curve, co-treatment: GSK2194069 100 nM | area under dose-response curve, co-treatment: pictilisib 100 nM | cell viability, 1 nM [%] | cell viability, 10 nM [%] | cell viability, 100 nM [%] | cell viability, 1000 nM [%] | cell viability, 10000 nM [%]
[11] | – | – | – | – | 68.2 | 90.4 | 79.3 | 69.3 | 14.6
[12] | – | – | – | – | 75.9 | 91.1 | 70 | 81.3 | 30
[13] | – | – | – | – | 44.7 | 34.4 | 7.92 | 1.18 | 2.24
[14] | – | – | – | – | 91.1 | 89.2 | > 100 | 86 | 33.1
[15] | – | – | – | – | 78.2 | 83.5 | 73.9 | 21.8 | < 0
[16] | – | – | – | – | 57.6 | 75.8 | 76.4 | 30 | < 0
[17] | – | – | – | – | 80.2 | 89.3 | 89.3 | 82.2 | 28.1
[18] | – | – | – | – | 96.5 | > 100 | 97.2 | 93.6 | 29.4
[19] | – | – | – | – | 89.5 | 82.1 | 62.3 | 1.83 | < 0
[20] | – | – | – | – | 63.6 | 47.6 | 46.5 | 10.6 | < 0
[21] | – | – | – | – | 100 | > 100 | 92.4 | 90.9 | 33.9
[22] | – | – | – | – | 64.7 | 93.3 | 85.8 | 53.4 | 3.26
[23] | – | – | – | – | 66 | 39.3 | 46.4 | 5.6 | 0.492
[24] | – | – | – | – | > 100 | 94.6 | 99.2 | 87.7 | 57.2
[25] | – | – | – | – | 89.3 | 91.6 | 96.4 | 89 | 3.92
[26] | < 0.0301 | < 0.0301 | < 0.0301 | < 0.0301 | – | – | – | – | –

— the supplement of paper PMC8671470
